Assay results taken from publication PMC5882637, “Ethanol potentiates the genotoxicity of the food-derived mammary carcinogen PhIP in human estrogen receptor-positive mammary cells: mechanistic support for lifestyle factors (cooked red meat and ethanol) associated with mammary cancer” (Archives of Toxicology, 2018).
Each block holds one compound with its values, some of them ahead of it.

How the values were obtained:
[1] = tested on: MCF-7 cells; assay: Cytotoxicity (cell counting, TrypanBlue exclusion), MCF-7
Experimental: (§1) Cells were cultured routinely in 75-cm^2 flasks in a humidified incubator at 37 °C, 5% CO2.
(§2) Briefly, cells were seeded at a density of 5 × 10^4 cells per well in 24-well plate. Cells were treated with PhIP or ethanol as detailed previously. Following treatment with chemicals and harvesting (48 h), cells were trypsinised, the cell concentration adjusted to 2 × 10^5 and re-suspended in serum-free R0 (serum-free media) with 2% pluronic acid medium (GIBCO, Life technologies) and cytotoxicity was determined by counting cells in a haemocytometer with TrypanBlue exclusion (GIBCO, Life technologies). For the MN assay, cells were spread on a microscope slide using a cytospin. Cells at a density of 2 × 10^4 cells per slide were fixed with 100% methanol and stained for 60 s with acridine orange (0.1 mg ml^−1 dissolved in PBS, Sigma-Aldrich). Frequency of MN was scored in 2000 cells per sample and three biological replicates were performed per treatment.

[2] = tested on: MDA-MB-231 cells; assay: Cytotoxicity (cell counting, TrypanBlue exclusion), MDA-MB-231; details: etoposide positive control (1.25 µM)
Experimental: as §1, §2

[3] = tested on: CYP2E1 mRNA expression; assay: RT-qPCR CYP2E1 mRNA, MCF-7
Experimental: as §1
For STAT3 inhibition, cells were co-treated for 24 h with PhIP and 25 µM STAT3 inhibitor (STAT3 inhibitor VIII 5, 15 diphenylporphyrin, Millipore, Feltham, UK). STAT3 inhibitor was dissolved in DMSO. For ethanol treatment, media was supplemented with different concentrations of ethanol (10 mM-100 mM, Sigma-Aldrich) and was added to the cells. In some experiments, N-acetyl-cysteine (NAC) (10 mM, Sigma-Aldrich) diluted in phosphate-buffered saline (PBS) was added to incubations.
(§3) Following treatment, cells were lysed using TRIZOL reagent and chloroform (0.2 ml) was added in each sample and centrifuged 12,000xg (10 min 2–8 °C). The upper aqueous phase was transferred to a fresh tube and 5 µg of RNase-free glycogen (as carrier to aqueous phase) and 0.5 ml of isopropyl alcohol was added to precipitate RNA and incubated (37 °C, 10 min). Following incubation, lysates were centrifuged at 12,000xg (10 min 2–8 °C). The gel-like pellet was washed with ethanol and re-dissolved in RNase-free water with heating (55–60 °C). Extracted RNA was quantified by UV spectroscopy (UV–VIS Nano-spectrophotometer, Implen, Essex, UK) and purity was assessed from 260/280 nm and 260/230 nm ratios. Reverse transcription (RT) of extracted RNA (100–500 ng) was completed according to manufacturer’s protocol (Invitrogen) and qPCR was performed using predesigned Taqman gene expression assays and FAST PCR master mix (Taqman, Applied Biosystems, Life technologies) using a StepOnePlus fast real-time PCR system (Applied Biosystems, Life technologies). Target gene expression was normalized to GAPDH and quantified using the delta-Ct method (Livak and Schmittgen [2001]).

[4] = tested on: intracellular ROS in MCF-7 cells; assay: ROS assay (carboxy-DCF-DA), MCF-7; type: cell-based, human
Experimental: STAT3 inhibitor was dissolved in DMSO.
Production of reactive oxygen species (ROS) was measured using 2′,7′–dichlorofluorescein diacetate method. Carboxy-2′,7′-dichlorofluorescein diacetate (carboxy-DCF-DA) is taken up by viable cells and cleaved by endogenous esterases to the nonfluorescent derivative, reduced carboxy-dichlorofluorescein (carboxy-DCFH). This product is retained in the cytosol where it can be oxidized by intracellular ROS to the highly fluorescent product, oxidised carboxy-dichlorofluorescein (carboxy-DCF). The intensity of fluorescence is proportional to intracellular ROS levels. MCF-7 cells (2 × 10^4/well) were seeded into 24-well plates in 1% FBS and allowed to attach overnight. Cells were treated with PhIP for 24 h and then treated with Carboxy-DCFDA (20 µL, 30 µM) in media containing 1% FBS (1 ml) and incubated for 30 min at 37 °C, washed with PBS and new media (1% FBS) was added. Fluorescent measurements (excitation at 485 nm and emission at 520 nm) were then taken from 10 min to 24 h using a fluorescence plate reader (BMG POLARstar Galaxy Labtech, Ortenberg, Germany). The concentration of DMSO (0.2%) was identical in all treatments and had no effect on ROS production at this concentration.

[5] = tested on: MCF-7 cells; assay: Micronucleus (MN) assay, MCF-7
Experimental: as §1, §2

[6] = tested on: intracellular ROS in MCF-7 cells; set-up: method as in Li et al. [2013]; Martinez-Outschoorn et al. [2010]; details: NAC 10 mM, ref Li et al. [2013], Martinez-Outschoorn et al. [2010]; cited from earlier work
[7] = tested on: MDA-MB-231 cells; assay: Micronucleus (MN) assay, MDA-MB-231
Experimental: as §1, §2

[8] = tested on: CYP1A2 mRNA expression; assay: RT-qPCR CYP1A2 mRNA, MCF-7; details: Fig. 2a
Experimental: as §1, §3

[9] = tested on: CYP1B1 mRNA expression; assay: RT-qPCR CYP1B1 mRNA, MCF-7; details: MCF-7
Experimental: as §1, §3

[10] = tested on: CYP1A2 mRNA expression; assay: RT-qPCR CYP1A2 mRNA, MDA-MB-231; details: Fig. 2c
Experimental: as §1, §3

[11] = tested on: CYP1B1 mRNA expression; assay: RT-qPCR CYP1B1 mRNA, MDA-MB-231; details: 24 h
Experimental: as §1, §3

[12] = tested on: STAT3 mRNA expression; assay: qPCR STAT3 mRNA, MCF-7; type: cell-based, human; details: co-treatment with PhIP, Fig. 4b
Experimental: as §1, §3

SMILES: COc1cc([C@@H]2c3cc4c(cc3[C@@H](O[C@@H]3O[C@@H]5CO[C@@H](C)O[C@H]5[C@H](O)[C@H]3O)[C@H]3COC(=O)[C@H]23)OCO4)cc(OC)c1O [Etoposide, reference compound]
Cytotoxicity (percent survival ± SD) ([1]; etoposide positive control (1.25 µM)): 81.7% ±1.4
Cytotoxicity (percent survival ± SD) [2]: 83.7% ± 2.3

effect of STAT3 inhibitor on CYP2E1 mRNA upregulation by PhIP ([3]; inhibitor 25 µM co-treated with PhIP 24 h, Fig. 4a): completely abolished
SMILES: C1=Cc2nc1cc1ccc([nH]1)c(-c1ccccc1)c1nc(cc3ccc([nH]3)c2-c2ccccc2)C=C1 [STAT3 inhibitor, 5, 15 diphenylporphyrin, reference compound]
effect of STAT3 inhibitor on H2O2-induced ROS ([4]; Fig. 5b): failed to attenuate
effect of STAT3 inhibitor on ROS production by PhIP ([4]; PhIP 100 µM 24 h, inhibitor 25 µM, Fig. 5b): significantly reduced

SMILES: CC(=O)N[C@@H](CS)C(=O)O [NAC, N-acetyl-cysteine, reference compound]
effect of NAC on cell survival ([1]; ethanol 50 mM and PhIP 100 µM with NAC 10 mM, Fig. 7d): did not affect
effect of NAC on genotoxicity of etoposide ([5]; NAC 10 mM, Fig. 7e): little effect
effect of NAC on genotoxicity of PhIP plus ethanol ([5]; NAC 10 mM, p = 0.01, Fig. 7e): decreased the genotoxicity of PhIP plus ethanol significantly
effect of NAC on ethanol-induced ROS production ([4]; ethanol 50 mM plus NAC 10 mM, Fig. 7c): clear decrease
accumulation of ROS [6]: abolish

effect of ICI on PhIP upregulation of CYP1A2 mRNA [8]: unaffected
effect of concurrent ICI on PhIP-mediated induction of CYP1B1 ([9]; 24 h, p = 0.05): significantly inhibited
effect of ICI co-treatment on E2-upregulated CYP1B1 expression ([9]; E2 1 µM, Fig. 2b): attenuated significantly
effect of ICI on PhIP upregulation of CYP1A2 mRNA [10]: unaffected
effect of concurrent ICI on PhIP-mediated induction of CYP1B1 [11]: in MCF-7 cells only
effect of ICI on CYP2E1 expression (PhIP co-treatment) ([3]; ICI 182,780 1 µM, Fig. 4c): significantly blocked
SMILES: C[C@]12CC[C@@H]3c4ccc(O)cc4C[C@@H](CCCCCCCCC[S+]([O-])CCCC(F)(F)C(F)(F)F)[C@H]3[C@@H]1CC[C@@H]2O (stereo partly shown) [ICI, Fulvestrant, reference compound]
effect of ICI co-incubation on MN induction by etoposide ([5]; Fig. 1): not affected
effect of ICI on E2-mediated genotoxicity ([5]; Fig. 1): attenuated
effect of ICI co-treatment on PhIP MN formation ([5]; p < 0.001, Fig. 1c): significantly attenuated
effect of ICI co-incubation on MN induction by etoposide ([7]; Fig. 1): not affected
effect of ER antagonist (ICI) on DNA damaging ability of PhIP ([7]; Fig. 1d): no change
effect of ICI on PhIP-mediated STAT3 increase [12]: inhibited
